# Literature values in patent US6974895B1, “Transgenic legume plants modified to produce resveratrol glucoside and uses thereof” (The Samuel Roberts Noble Foundation, Inc., priority 1999, dated 2005).
# Test system: aberrant colon crypt formation
# Settings: azoxymethane treated rat model (Steele, et al. 1998)
smiles,measurement,value
"Oc1ccc(C=Cc2cc(O)cc(O)c2)cc1 [resveratrol, 3,5,4′-trihydroxystilbene]",inhibition of aberrant colon crypt formation,significant inhibition
